In general, inhibition refers to the drop in the measured response relative to a control, in per cent.

Assay [1] has as its target T1, human B1R (bradykinin receptor 1) (Homo sapiens, UniProt P46663).
T1 construct: expressed in transfected cells; host or cells: CHO K1 cells
T1 sequence (P46663 1-353): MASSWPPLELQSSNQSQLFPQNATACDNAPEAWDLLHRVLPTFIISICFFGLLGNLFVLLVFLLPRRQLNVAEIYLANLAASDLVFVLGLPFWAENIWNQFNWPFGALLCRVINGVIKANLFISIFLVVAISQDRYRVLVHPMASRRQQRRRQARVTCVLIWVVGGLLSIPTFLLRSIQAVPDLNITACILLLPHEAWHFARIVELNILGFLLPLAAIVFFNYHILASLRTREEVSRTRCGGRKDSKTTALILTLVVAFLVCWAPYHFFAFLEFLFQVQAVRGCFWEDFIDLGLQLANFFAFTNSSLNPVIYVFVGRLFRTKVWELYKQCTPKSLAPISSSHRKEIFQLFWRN
Kind of assay: FLIPR Ca2+ assay (Fluo-4) on CHO K1 cells stably transfected with the human B1R gene (hB1R cells): % inhibition at 10 μM / IC50, agonist Lys-Des-Arg9-bradykinin. The format is cell-based. The following applies: for inhibition at 10 µM: CHO-K1, human B1R. The method, boiled down:
(§1)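 Using a two-addition FLIPR protocol, compound (10 μM for % values; concentration series for IC50) was preincubated 10–20 min with Fluo-4-loaded B1R-expressing CHO K1 cells before EC80 agonist challenge. Suppression of Ca2+ inflow, read as peak fluorescence, is expressed relative to maximum achievable inhibition; duplicate/triplicate, ≥2 independent experiments.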

For assay [2], the target named is T2, rat B1R (bradykinin receptor 1) (Rattus norvegicus, UniProt P97583).
T2 construct: expressed in transfected cells; host or cells: CHO K1 cells
T2 sequence (P97583 1-337): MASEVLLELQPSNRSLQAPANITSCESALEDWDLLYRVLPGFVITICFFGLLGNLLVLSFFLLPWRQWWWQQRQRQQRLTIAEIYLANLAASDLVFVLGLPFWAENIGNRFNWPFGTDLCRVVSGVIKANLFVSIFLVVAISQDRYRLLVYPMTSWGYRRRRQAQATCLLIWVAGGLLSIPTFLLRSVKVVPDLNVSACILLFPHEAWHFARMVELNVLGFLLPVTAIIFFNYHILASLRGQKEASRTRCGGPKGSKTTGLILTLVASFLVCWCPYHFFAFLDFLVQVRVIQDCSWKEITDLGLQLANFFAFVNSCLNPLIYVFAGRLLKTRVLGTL
Kind of assay: FLIPR Ca2+ assay (Fluo-4) on CHO K1 cells stably transfected with the B1R gene of the rat (rB1R cells): % inhibition at 10 μM / IC50, agonist Des-Arg9-bradykinin. It is filed as cell-based. The note with it: for inhibition at 10 µM: CHO-K1, rat B1R. The gist of the method:
as §1

Structures can show the parent of a compound that is named as a salt.

As for `CC1(C)Cc2ccc(C(=O)N3CCC4(CC3)CCN(c3ccncc3)CC4)cc2C1NC(=O)c1c(Cl)cccc1C(F)(F)F` (stereo not shown) [IND_CC-206, 2-Chloro-N-[2,2-dimethyl-6-(9-pyridin-4-yl-3,9-diazaspiro[5.5]undecane-3-carbonyl)-1,3-dihydro-inden-1-yl]-6-(trifluoromethyl)-benzamide], the inhibition at 10 µM in assay [1] is 100%; in assay [2], 103%.
For `CC1(C)CC(NC(=O)c2sccc2Cl)c2cc(C(=O)N3CCC4(CC3)CCN(c3ccncc3)CC4)ccc21` (stereo not shown) [Ind_CC-055, 3-chloro-N-[3,3-dimethyl-6-(9-pyridin-4-yl-3,9-diazaspiro[5.5]undecane-3-carbonyl)-1,2-dihydro-inden-1-yl]-thiophene-2-carboxylic acid amide], the inhibition at 10 µM in assay [1] was 99%; in assay [2] it was 102%.
On the same counts, the results for `O=C(NC1CCc2ccc(C(=O)N3CCC4(CC3)CCN(c3ccncc3)C4)cc21)c1ccc(Cl)s1` (stereo not shown) [Ind_CC-043, 5-chloro-N-[6-(2-pyridin-4-yl-2,8-diazaspiro[4.5]decane-8-carbonyl)-2,3-dihydro-1H-inden-1-yl]-thiophene-2-carboxylic acid amide] are 79% and 88%.
Turning to `CC1(C)Cc2ccc(C(=O)N3CCC4(CC3)CCN(c3ccncc3)CC4)cc2C1NC(=O)c1sccc1Cl` (stereo not shown) [Ind_CC-065, 3-chloro-N-[2,2-dimethyl-6-(9-pyridin-4-yl-3,9-diazaspiro[5.5]undecane-3-carbonyl)-1,3-dihydro-inden-1-yl]-thiophene-2-carboxylic acid amide], the inhibition at 10 µM in assay [1] was 94%; in assay [2], 98%.
With `COc1ccc(C(=O)NC2CCc3ccc(C(=O)N4CCC5(CC4)CCN(c4ccncc4)C5)cc32)c(Cl)c1` (stereo not shown) [IND_CC-212, 2-Chloro-4-methoxy-N-[6-(2-pyridin-4-yl-2,8-diazaspiro[4.5]decane-8-carbonyl)-2,3-dihydro-1H-inden-1-yl]-benzamide], the inhibition at 10 µM came to 58% in assay [1] and 102% in assay [2].
Take `CN(C(=O)c1cccc(C(F)(F)F)c1Cl)C1CCc2ccc(C(=O)N3CCC4(CC3)CCN(c3ccncc3)CC4)cc21` (stereo not shown) [IND_CC-225, 2-Chloro-N-methyl-N-[6-(9-pyridin-4-yl-3,9-diazaspiro[5.5]undecane-3-carbonyl)-2,3-dihydro-1H-inden-1-yl]-3-(trifluoromethyl)-benzamide]: the inhibition at 10 µM in assay [1] was 71%; in assay [2], 103%.
Taken in the same sequence, the figures for `O=C(N[C@@H]1CCOc2ccc(C(=O)N3CCC4(CC3)CCN(c3ccncc3)C4)cc21)c1ccccc1Cl` [Example H-57, 2-Chloro-N-[(4R)-6-(3-pyridin-4-yl-3,8-diazaspiro[4.5]decane-8-carbonyl)-3,4-dihydro-2H-chromen-4-yl]-benzamide] were 99% and 105%.
Consider `O=C(N[C@@H]1CCOc2cc(F)c(C(=O)N3CCC4(CC3)CCN(c3ccncc3)CC4)cc21)c1ccccc1Cl` [Example H-92, 2-Chloro-N-[(4R)-7-fluoro-6-(9-pyridin-4-yl-3,9-diazaspiro[5.5]undecane-3-carbonyl)-3,4-dihydro-2H-chromen-4-yl]-benzamide], for which the inhibition at 10 µM in assay [1] was determined as 96%; in assay [2], 104%.
For the compound `O=C(NC1CCc2ccc(C(=O)N3CCC4(CC3)CCN(c3ccncc3)CC4)cc21)c1ccc(Cl)s1` (stereo not shown) [Ind_CC-005, 5-chloro-N-[6-(9-pyridin-4-yl-3,9-diazaspiro[5.5]undecane-3-carbonyl)-2,3-dihydro-1H-inden-1-yl]-thiophene-2-carboxylic acid amide], the inhibition at 10 µM in assay [1] stood at 97%; in assay [2], 98%.
In the case of `O=C(N[C@@H]1CCc2cc(C(=O)N3CCC4(CCN(c5ccncc5)CC4)C3)ccc21)c1ccccc1Cl` [Example H-171], the results for the inhibition at 10 µM in assay [1] and in assay [2] were 100% and 104%, respectively.
With `O=C(N[C@@H]1CCc2ccc(C(=O)N3CCC4(CCC(N5CCn6ncnc6C5)CC4)CC3)cc21)c1ccccc1Cl` [Example H-55, 2-Chloro-N-[(1R)-6-[9-(5,6,7,8-tetrahydro-[1,2,4]triazolo[1,5-a]pyrazin-7-yl)-3-azaspiro[5.5]undecane-3-carbonyl]-2,3-dihydro-1H-inden-1-yl]-benzamide], the inhibition at 10 µM is 42% in assay [1] and 87% in assay [2].
For `CN(C(=O)NCc1ccccc1Cl)C1CCc2ccc(C(=O)N3CCC4(CC3)CCN(c3ccncc3)CC4)cc21` (stereo not shown) [Ind_CC-023], the “% Inhibition (human B1R) at 10 μM” value in assay [1] (human B1R) was determined as 98%. Further, the “% Inhibition (rat B1R) at 10 μM” value in assay [2] (rat B1R) amounted to 93%.
For `CN(C(=O)c1ccc(F)cc1Cl)C1CCc2ccc(C(=O)N3CCC4(CC3)CCN(c3ccncc3)CC4)cc21` (stereo not shown) [IND_CC-261, 2-Chloro-4-fluoro-N-methyl-N-[6-(9-pyridin-4-yl-3,9-diazaspiro[5.5]undecane-3-carbonyl)-2,3-dihydro-1H-inden-1-yl]-benzamide], the inhibition at 10 µM in assay [1] was 100%; in assay [2], 103%.
In the case of `O=C(NC1CCc2ccc(C(=O)N3CCC4(CC3)CCN(c3ccncc3)C4)cc21)c1c(Cl)cccc1Cl` (stereo not shown) [IND_CC-270, 2,6-Dichloro-N-[6-(2-pyridin-4-yl-2,8-diazaspiro[4.5]decane-8-carbonyl)-2,3-dihydro-1H-inden-1-yl]-benzamide], the inhibition at 10 µM in assay [1] amounted to 100%; in assay [2], 108%.
As to `O=C(NC1CCc2ccc(C(=O)N3CCC4(CCC(Oc5ccncc5)CC4)CC3)cc21)c1ccccc1Cl` (stereo not shown) [Example H-08], the inhibition at 10 µM in assay [1] is 71%; in assay [2], 100%.
On the same counts, the results for `CN(C(=O)c1ccccc1Cl)C1CCc2ccc(C(=O)N3CCC4(CC3)CCN(c3ccc(F)cc3)CC4)cc21` (stereo not shown) [Ind_CC-108, 2-chloro-N-[6-[9-(4-fluorophenyl)-3,9-diazaspiro[5.5]undecane-3-carbonyl]-2,3-dihydro-1H-inden-1-yl]-N-methyl-benzamide] are 23% and 51%.
Taken in the same sequence, the figures for `O=C(c1ccc2c(c1)C(N(C(=O)c1ccccc1Cl)C1CC1)CC2)N1CCC2(CCN(Cc3ccncc3)CC2)CC1` (stereo not shown) [Ind_CC-116, 2-chloro-N-cyclopropyl-N-[6-[9-(pyridin-4-yl-methyl)-3,9-diazaspiro[5.5]undecane-3-carbonyl]-2,3-dihydro-1H-inden-1-yl]-benzamide] were 68% and 77%.
Regarding `O=C(NC1CCc2ccc(C(=O)N3CCC4(CCN(Cc5ccc(F)c(F)c5)CC4)C3)cc21)c1ccccc1Cl` (stereo not shown) [IND_CC-542, 2-Chloro-N-[6-[8-[(3,4-difluoro-phenyl)-methyl]-2,8-diazaspiro[4.5]decane-2-carbonyl]-2,3-dihydro-1H-inden-1-yl]-benzamide], the inhibition at 10 µM in assay [1] is 27%; in assay [2] it was 104%.
Regarding `O=C(N[C@@H]1CCc2cc(F)c(C(=O)N3CCC4(CCN(c5ccncc5)CC4)C3)cc21)c1ccccc1Cl` [Example H-64, 2-Chloro-N-[(1R)-5-fluoro-6-(8-pyridin-4-yl-3,8-diazaspiro[4.5]decane-3-carbonyl)-2,3-dihydro-1H-inden-1-yl]-benzamide hydrochloride], the inhibition at 10 µM stood at 100% in assay [1] and 105% in assay [2].
Consider `CC(C(=O)N[C@@H]1CCc2ccc(C(=O)N3CCC4(CCN(c5ccncc5)CC4)C3)cc21)c1ccccc1Cl` (stereo partly drawn) [Example H-145, 2-(2-Chlorophenyl)-N-[(1R)-6-(8-pyridin-4-yl-3,8-diazaspiro[4.5]decane-3-carbonyl)-2,3-dihydro-H-inden-1-yl]-propionamide], for which the figures for the inhibition at 10 µM in assay [1] and in assay [2] were 100% and 101%, respectively.
With `COc1cc(C)c(C(=O)NC2CCc3ccc(C(=O)N4CCC5(CC4)CCN(c4ccncc4)CC5)cc32)c(C)c1` (stereo not shown) [Ind_CC-013, 4-methoxy-2,6-dimethyl-N-[6-(9-pyridin-4-yl-3,9-diazaspiro[5.5]undecane-3-carbonyl)-2,3-dihydro-1H-inden-1-yl]-benzamide], the inhibition at 10 µM in assay [1] came to 68%; in assay [2] it was 71%.
Regarding `O=C(NC1CCc2ccc(C(=O)N3CCC4(CCN(c5ccnc(C(F)(F)F)n5)CC4)C3)cc21)c1ccccc1Cl` (stereo not shown) [Example H-51, 2-chloro-N-[6-[8-[2-(trifluoromethyl)-pyrimidin-4-yl]-3,8-diazaspiro[4.5]decane-3-carbonyl]-2,3-dihydro-1H-inden-1-yl]-benzamide], the inhibition at 10 µM in assay [1] was determined as 98%; in assay [2], 96%.
For `CN(C(=O)Nc1ccc(Cl)c(Cl)c1)C1CCc2ccc(C(=O)N3CCC4(CC3)CCN(c3ccncc3)CC4)cc21` (stereo not shown) [Ind_CC-022, 3-(3,4-dichlorophenyl)-1-methyl-1-[6-(9-pyridin-4-yl-3,9-diazaspiro[5.5]undecane-3-carbonyl)-2,3-dihydro-1H-inden-1-yl]-urea], the inhibition at 10 µM in assay [1] came to 91%; in assay [2], 75%.

These data come from patent US8455475B2 (Gruenenthal GmbH, priority 2009, dated 2013).
